Test results as given in PubChem BioAssay AID1963967 (Molecular Pharmacology Branch, DTP, NCI, 2024).

Tested on: 855422-203-R-J1-PDC spheroids with HUVEC/MSC, viability
Assay: Anticancer human tumor 855422-203-R-J1-PDC patient-derived bladder carcinoma cell line growth inhibition [PI3K]
Settings: for IC50: curve of first compound; for viability, T/C: stronger effect = lower value
Procedure, shortened: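 Targeted small molecules plus PI3K inhibitors, half-log dose series from Cmax (default top 10 microM), were applied to heterotypic spheroids of cancer cells with HUVEC and MSCs. Viability indicated growth inhibition.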

[1] = second compound 0.0316 µM, first compound 0.0316 µM
[2] = second compound 0.0316 µM, first compound 0.1 µM
[3] = second compound 0.0316 µM, first compound 0.316 µM
[4] = second compound 0.0316 µM, first compound 1 µM
[5] = second compound 0.0316 µM, first compound 3.16 µM
[6] = second compound 0.0316 µM, first compound 10 µM
[7] = second compound 0.1 µM, first compound 0.0316 µM
[8] = second compound 0.1 µM, first compound 0.1 µM
[9] = second compound 0.1 µM, first compound 0.316 µM
[10] = second compound 0.1 µM, first compound 1 µM
[11] = second compound 0.1 µM, first compound 3.16 µM
[12] = second compound 0.1 µM, first compound 10 µM
[13] = second compound 0.316 µM, first compound 0.0316 µM
[14] = second compound 0.316 µM, first compound 0.1 µM
[15] = second compound 0.316 µM, first compound 0.316 µM
[16] = second compound 0.316 µM, first compound 1 µM
[17] = second compound 0.316 µM, first compound 3.16 µM
[18] = second compound 0.316 µM, first compound 10 µM
[19] = second compound 1 µM, first compound 0.0316 µM
[20] = second compound 1 µM, first compound 0.1 µM
[21] = second compound 1 µM, first compound 0.316 µM
[22] = second compound 1 µM, first compound 1 µM
[23] = second compound 1 µM, first compound 3.16 µM
[24] = second compound 1 µM, first compound 10 µM
[25] = second compound 3.16 µM, first compound 0.0316 µM
[26] = second compound 3.16 µM, first compound 0.1 µM
[27] = second compound 3.16 µM, first compound 0.316 µM
[28] = second compound 3.16 µM, first compound 1 µM
[29] = second compound 3.16 µM, first compound 3.16 µM
[30] = second compound 3.16 µM, first compound 10 µM
[31] = second compound 10 µM, first compound 0.0316 µM
[32] = second compound 10 µM, first compound 0.1 µM
[33] = second compound 10 µM, first compound 0.316 µM
[34] = second compound 10 µM, first compound 1 µM
[35] = second compound 10 µM, first compound 3.16 µM
[36] = second compound 10 µM, first compound 10 µM
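Further: agents incubated with spheroids for one week before read-out.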
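Wherever viability, T/C is given: 100% = DMSO vehicle-treated control wells.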

SMILES: Cn1ncc(Cl)c1-c1cc(C(=O)NC(CN)Cc2cccc(F)c2)sc1Cl (stereo unspecified) + CC(Nc1ncnc2nc[nH]c12)c1cc2cccc(Cl)c2c(=O)n1-c1ccccc1
- IC50 (second compound 0.0316 µM): 0.572 µM
- IC50 (second compound 0.1 µM): 0.706 µM
- IC50 (second compound 0.316 µM): 0.634 µM
- IC50 (second compound 1 µM): 0.695 µM
- IC50 (second compound 3.16 µM): 0.454 µM
- IC50 (second compound 10 µM): 0.411 µM
- viability, T/C [1]: 98.1%
- viability, T/C [2]: 78.2%
- viability, T/C [3]: 58%
- viability, T/C [4]: 41.9%
- viability, T/C [5]: 25.4%
- viability, T/C [6]: 9.19%
- viability, T/C [7]: 95.2%
- viability, T/C [8]: 84.5%
- viability, T/C [9]: 59.3%
- viability, T/C [10]: 46.4%
- viability, T/C [11]: 25.1%
- viability, T/C [12]: 8.79%
- viability, T/C [13]: 92.2%
- viability, T/C [14]: 74.7%
- viability, T/C [15]: 55.5%
- viability, T/C [16]: 48.3%
- viability, T/C [17]: 25.9%
- viability, T/C [18]: 6.18%
- viability, T/C [19]: 79.8%
- viability, T/C [20]: 75.4%
- viability, T/C [21]: 62.1%
- viability, T/C [22]: 45%
- viability, T/C [23]: 22.5%
- viability, T/C [24]: 10%
- viability, T/C [25]: 87.5%
- viability, T/C [26]: 75.3%
- viability, T/C [27]: 52.4%
- viability, T/C [28]: 39.5%
- viability, T/C [29]: 21.9%
- viability, T/C [30]: 8.05%
- viability, T/C [31]: 83.4%
- viability, T/C [32]: 71.8%
- viability, T/C [33]: 52.5%
- viability, T/C [34]: 36.9%
- viability, T/C [35]: 20.1%
- viability, T/C [36]: 5.58%

SMILES: Cn1nccc1Nc1nccc(-c2ccn(C(CO)c3ccc(Cl)c(F)c3)c(=O)c2)n1 (stereo unspecified) + CC(Nc1ncnc2nc[nH]c12)c1cc2cccc(Cl)c2c(=O)n1-c1ccccc1
- IC50 (second compound 0.0316 µM): 8.7 µM
- IC50 (second compound 0.1 µM): 9.94 µM
- IC50 (second compound 0.316 µM): 8.44 µM
- IC50 (second compound 1 µM): 9 µM
- IC50 (second compound 3.16 µM): 7.46 µM
- IC50 (second compound 10 µM): 4.01 µM
- viability, T/C [1]: 113%
- viability, T/C [2]: 94.6%
- viability, T/C [3]: 116%
- viability, T/C [4]: 98.2%
- viability, T/C [5]: 91%
- viability, T/C [6]: 44.3%
- viability, T/C [7]: 107%
- viability, T/C [8]: 98.9%
- viability, T/C [9]: 109%
- viability, T/C [10]: 101%
- viability, T/C [11]: 92.7%
- viability, T/C [12]: 49.5%
- viability, T/C [13]: 111%
- viability, T/C [14]: 98.7%
- viability, T/C [15]: 105%
- viability, T/C [16]: 106%
- viability, T/C [17]: 90%
- viability, T/C [18]: 43.5%
- viability, T/C [19]: 107%
- viability, T/C [20]: 112%
- viability, T/C [21]: 107%
- viability, T/C [22]: 103%
- viability, T/C [23]: 88.1%
- viability, T/C [24]: 45.7%
- viability, T/C [25]: 100%
- viability, T/C [26]: 107%
- viability, T/C [27]: 107%
- viability, T/C [28]: 103%
- viability, T/C [29]: 84.4%
- viability, T/C [30]: 38.2%
- viability, T/C [31]: 88.5%
- viability, T/C [32]: 81.3%
- viability, T/C [33]: 87.4%
- viability, T/C [34]: 80%
- viability, T/C [35]: 56.5%
- viability, T/C [36]: 25.1%

SMILES: C#Cc1c(F)ccc2cc(O)cc(-c3ncc4c(N5CC6CCC(C5)N6)nc(OCC56CCCN5CC(F)C6)nc4c3F)c12 (stereo unspecified) + CC(Nc1ncnc2nc[nH]c12)c1cc2cccc(Cl)c2c(=O)n1-c1ccccc1
- IC50 (second compound 0.0316 µM): > 10 µM
- IC50 (second compound 0.1 µM): > 10 µM
- IC50 (second compound 0.316 µM): > 10 µM
- IC50 (second compound 1 µM): > 10 µM
- IC50 (second compound 3.16 µM): > 10 µM
- IC50 (second compound 10 µM): > 10 µM
- viability, T/C [1]: 105%
- viability, T/C [2]: 101%
- viability, T/C [3]: 116%
- viability, T/C [4]: 98.3%
- viability, T/C [5]: 112%
- viability, T/C [6]: 119%
- viability, T/C [7]: 107%
- viability, T/C [8]: 102%
- viability, T/C [9]: 107%
- viability, T/C [10]: 101%
- viability, T/C [11]: 110%
- viability, T/C [12]: 112%
- viability, T/C [13]: 98.1%
- viability, T/C [14]: 108%
- viability, T/C [15]: 96.6%
- viability, T/C [16]: 102%
- viability, T/C [17]: 106%
- viability, T/C [18]: 121%
- viability, T/C [19]: 102%
- viability, T/C [20]: 102%
- viability, T/C [21]: 103%
- viability, T/C [22]: 109%
- viability, T/C [23]: 104%
- viability, T/C [24]: 115%
- viability, T/C [25]: 107%
- viability, T/C [26]: 99.1%
- viability, T/C [27]: 112%
- viability, T/C [28]: 93.7%
- viability, T/C [29]: 98.1%
- viability, T/C [30]: 126%
- viability, T/C [31]: 87.2%
- viability, T/C [32]: 82.8%
- viability, T/C [33]: 80%
- viability, T/C [34]: 88.5%
- viability, T/C [35]: 94%
- viability, T/C [36]: 88.9%
